From patent publication US12274710B2, “Compound for regulating body weight imbalance, composition thereof and application thereof” (GUANGZHOU CENTURY CLINICAL RESEARCH CO., LTD, priority 2019, dated 2025)
Like-named read-outs stand apart in the source and are kept apart here.

How the values were obtained:
[1] = system: patients diagnosed with gastric ulcer or duodenal ulcer; details: 4 weeks
Description: (§1) Efficacy and safety of the compound of the present disclosure in treating ulcers were studied in patients suffering from gastric ulcer or duodenal ulcer.
(§2) The dosage was based on a standard dosage of 3 g per day and should be increased or decreased according to individual conditions of the patients.
The number of ulcer foci and the area of ulcer foci (mm^2) of each patient were checked before and after the treatment, and the efficacy after treatment was judged according to the following criteria:
Completely healed: after the treatment, the ulcers and surrounding inflammation all disappeared after an endoscopic examination;
Basically healed: after the treatment, the ulcers disappeared in an endoscopic examination, but there was still inflammation; and partially healed: after the treatment, the area of the ulcers was reduced by 50% or more in an endoscopic examination; and
Unhealed: after the treatment, the area of the ulcers was reduced by less than 50% in an endoscopic examination.
The healing rate was used as an indicator of efficacy. Healing rate=(number of completely healed patients+number of basically healed patients)÷total number of patients in this group×100%.

[2] = system: patients diagnosed with gastric ulcer or duodenal ulcer; experiment: Routine examination indicators and digestive function before and after drug treatment (safety); format: in vivo, human; details: after treatment, 4 weeks
Description: as §1, §2
The number of red blood cells, the number of white blood cells, ALT, AST, serum creatinine, urine protein and other laboratory test items were checked before and after treatment. Routine clinical diagnostic criterias were used to determine whether the test items were normal and the normal rate was calculated. Normal rate of test indicators=number of patients with normal test indicators÷total number of patients in this group×100%
Effects of the drug on normal digestive function of the patients were also investigated before and after treatment by determining the rate of loose stool and the rate of constipation: Rate of loose stool=number of patients with loose stool÷total number of patients in this group×100%; and Rate of constipation=number of patients with constipation÷total number of patients in this group×100%.

[3] = for Rate of weight change: after treatment vs before, 4 weeks
Description: as §2
Weight changes of patients before and after treatment were also investigated: Rate of weight change=(weight after treatment−weight before treatment)÷weight before treatment×100%.

rats in obese model = experiment: Effect on BMI of rats in obese model (formula feed); format: in vivo, SD rats; details: for BMI / BMI of animals compared with the model group (in words): 4 weeks; for BMI: model group 7.73 ± 0.27
Description: Except the blank group and the model group, each group had three subgroups: low dose, middle dose, and high dose. There were 6 animals in each subgroup.
The animals in the blank group were fed with a common feed every day. The animals in each group except the blank group were fed with a formula feed every day. The formula feed contained 5% of cholesterol, 6% of sucrose, 20% of egg yolk, 6% of peanut butter, 12% of whole milk powder, 6% of sesame oil (the percentage was by mass) and other ingredients of the common feed.
Each test drug was mixed with 5% methylcellulose solution; the animals in each group except the blank group and the model group were administered intragastrically respectively with a low dose of 100 mg/kg, a middle dose of 400 mg/kg and a high dose of 1,600 mg/kg; the animals in the blank group and the model group were not administered with the test drug and they were administered intragastrically with the same amount of 5% methylcellulose solution respectively. The intragastric administration was conducted once a day continuously for 4 weeks.
During the test process, the animals in each group were able to eat normally without anorexia. The stool characteristics were normal and no obvious diarrhea occurred.
After the last drug administration, the animals in each group were fasted for 12 h, during which water was provided, and then the animals were weighed.
Body length (distance from the nose to the anus) was measured after the animals were anesthetized with sodium pentobarbital and body mass index (BMI) (BMI=weight (kg)÷(height (m))^2) was calculated.
Statistical analysis was conducted by using the data in each group and the main results were screened and shown in Table 3 (Note: some test drugs in the table only list the middle-dose subgroups).

[4] = system: persons suffering from weight imbalance
[5] = middle dose 400 mg/kg intragastrically once a day

## dosmalfate [compound 3]
[1]; Group 0.5 g/day, 10 patients
  Healing rate of ulcers: 30.0%
[1]; Group 1 g/day, 18 patients
  Healing rate of ulcers: 55.6%
[1]; Group 3 g/day, 37 patients
  Healing rate of ulcers: 62.2%
[1]; Group 9 g/day, 10 patients
  Healing rate of ulcers: 80.0%
[1]; Group 18 g/day, 5 patients
  Healing rate of ulcers: 80.0%
[2]; Group 0.5 g
  Normal rate of ALT: 90.0%
  Normal rate of AST: 100.0%
  Normal rate of red blood cells: 100.0%
  Normal rate of serum creatinine: 100.0%
  Normal rate of urine protein: 100.0%
  Normal rate of white blood cells: 100.0%
  Rate of constipation: 0.0%
  Rate of loose stool: 0.0%
[2]; Group 1 g
  Normal rate of ALT: 94.4%
  Normal rate of AST: 100.0%
  Normal rate of red blood cells: 94.4%
  Normal rate of serum creatinine: 100.0%
  Normal rate of urine protein: 94.4%
  Normal rate of white blood cells: 100.0%
  Rate of constipation: 0.0%
  Rate of loose stool: 0.0%
[2]; Group 3 g
  Normal rate of ALT: 91.9%
  Normal rate of AST: 94.6%
  Normal rate of red blood cells: 94.6%
  Normal rate of serum creatinine: 94.6%
  Normal rate of urine protein: 94.6%
  Normal rate of white blood cells: 91.9%
  Rate of constipation: 2.7%
  Rate of loose stool: 0.0%
[2]; Group 9 g
  Normal rate of ALT: 90.0%
  Normal rate of AST: 90.0%
  Normal rate of red blood cells: 90.0%
  Normal rate of serum creatinine: 100.0%
  Normal rate of urine protein: 100.0%
  Normal rate of white blood cells: 100.0%
  Rate of constipation: 0.0%
  Rate of loose stool: 0.0%
[2]; Group 18 g
  Normal rate of ALT: 100.0%
  Normal rate of AST: 100.0%
  Normal rate of red blood cells: 80.0%
  Normal rate of serum creatinine: 100.0%
  Normal rate of urine protein: 100.0%
  Normal rate of white blood cells: 80.0%
  Rate of constipation: 0.0%
  Rate of loose stool: 0.0%
[3]; Group 0.5 g
  Rate of weight change: −4.2%
[3]; Group 1 g
  Rate of weight change: −5.3%
[3]; Group 3 g
  Rate of weight change: −7.0%
[3]; Group 9 g
  Rate of weight change: −7.1%
[3]; Group 18 g
  Rate of weight change: −3.8%
[3]; each dosage group, after 4 weeks of administration
  Effect on weight of ulcer patients (in words): weight loss to varing degrees
Rats in obese model; high dose 1,600 mg/kg intragastrically once a day
  BMI: 5.85 ± 0.23 kg/m^2
Rats in obese model; low dose 100 mg/kg intragastrically once a day
  BMI: 6.72 ± 0.32 kg/m^2
Rats in obese model; [5]
  BMI: 6.06 ± 0.29 kg/m^2
Rats in obese model; obese model rats
  BMI of animals compared with the model group (in words): significantly reduced
Rats in obese model; obese model rats, same dose
  Relative effectiveness on BMI at the same dose (in words): more effective than compound 1 and compound 2
[4]; A person, 680 μmol/L before, 3 g three times a day, two months, no uric acid-lowering drug
  Uric acid level after administration: 600 µmol/L
[4]; A person, BMI 29 before, 1.5 g three times a day, three months
  BMI index after administration: 25.7
[4]; A person, BMI 32 before, 3 g three times a day, two months
  BMI index after administration: 28.2
[4]; Person, BMI 25 before, 1 g twice a day, two months
  BMI index after administration: 22
[4]; Person, obesity and hyperuricemia, 85 kg before, 3 g three times a day, two months
  Body weight after administration: 75 kg
[4]; Person, polycystic ovary syndrome, 62 kg before, 1.5 g three times a day, three months
  Body weight after administration: 55 kg

## sucralfate [reference compound]
Rats in obese model; [5]
  BMI: 7.87 ± 0.34 kg/m^2
Rats in obese model; obese model rats
  BMI of animals compared with the model group (in words): no significant difference

## COc1ccc(-c2cc(=O)c3c(O)cc(O[C@@H]4O[C@H](CO[C@@H]5O[C@@H](C)[C@H](O)[C@@H](O)[C@H]5O)[C@@H](O)[C@H](O)[C@H]4O)cc3o2)cc1O [diosmin, reference compound]
Rats in obese model; [5]
  BMI: 7.60 ± 0.39 kg/m^2
Rats in obese model; obese model rats
  BMI of animals compared with the model group (in words): no significant difference
